The source made the active and inactive calls. For most assays here, no stated cut-off is given here; in the data, actives have a measured Kd and inactives only a lower limit.
Experiments:
[1] = molecular target: Bone morphogenetic protein receptor type-1B (Homo sapiens, UniProt O00238)
[2] = molecular target: Citron Rho-interacting kinase (Homo sapiens, UniProt O14578)
Ephrin type-A receptor 7 = Ephrin type-A receptor 7 (Homo sapiens, UniProt Q15375)
Ephrin type-B receptor 4 = molecular target: T1, Ephrin type-B receptor 4 (Homo sapiens, UniProt P54760)
T1 sequence (P54760 whole entry): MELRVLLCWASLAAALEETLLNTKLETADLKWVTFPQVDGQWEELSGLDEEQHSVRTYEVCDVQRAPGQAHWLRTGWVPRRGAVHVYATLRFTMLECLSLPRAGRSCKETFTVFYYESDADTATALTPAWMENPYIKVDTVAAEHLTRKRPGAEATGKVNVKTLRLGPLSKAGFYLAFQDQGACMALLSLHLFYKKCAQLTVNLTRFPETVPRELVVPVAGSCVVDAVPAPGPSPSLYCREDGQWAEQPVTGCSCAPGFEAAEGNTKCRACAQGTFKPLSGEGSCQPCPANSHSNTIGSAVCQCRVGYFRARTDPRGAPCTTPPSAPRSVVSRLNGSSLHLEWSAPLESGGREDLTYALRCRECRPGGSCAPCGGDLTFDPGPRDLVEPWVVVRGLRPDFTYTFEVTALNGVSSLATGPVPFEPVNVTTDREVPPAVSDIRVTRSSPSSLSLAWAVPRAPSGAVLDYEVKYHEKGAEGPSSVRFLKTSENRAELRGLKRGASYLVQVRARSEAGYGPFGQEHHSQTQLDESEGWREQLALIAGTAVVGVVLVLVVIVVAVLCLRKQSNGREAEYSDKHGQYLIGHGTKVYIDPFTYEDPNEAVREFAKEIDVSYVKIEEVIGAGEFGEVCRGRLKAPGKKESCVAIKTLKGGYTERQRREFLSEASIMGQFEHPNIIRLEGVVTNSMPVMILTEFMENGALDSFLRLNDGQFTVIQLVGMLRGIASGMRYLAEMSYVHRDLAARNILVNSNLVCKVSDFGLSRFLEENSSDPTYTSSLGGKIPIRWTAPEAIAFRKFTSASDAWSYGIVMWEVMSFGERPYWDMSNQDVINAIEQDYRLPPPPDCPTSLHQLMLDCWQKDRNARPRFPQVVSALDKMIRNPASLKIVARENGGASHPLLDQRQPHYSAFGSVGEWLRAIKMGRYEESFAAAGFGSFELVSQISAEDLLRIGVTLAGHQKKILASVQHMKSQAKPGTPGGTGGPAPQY

[3] = molecular target: Dual specificity mitogen-activated protein kinase kinase 2 (Homo sapiens, UniProt P36507)
[4] = molecular target: Mitogen-activated protein kinase 3 (Homo sapiens, UniProt P27361)
[5] = molecular target: Mitogen-activated protein kinase 9 (Homo sapiens, UniProt P45984)
Rab-like protein 3 = molecular target: T2, Rab-like protein 3 (Homo sapiens, UniProt Q5HYI8)
T2 sequence (Q5HYI8 whole entry): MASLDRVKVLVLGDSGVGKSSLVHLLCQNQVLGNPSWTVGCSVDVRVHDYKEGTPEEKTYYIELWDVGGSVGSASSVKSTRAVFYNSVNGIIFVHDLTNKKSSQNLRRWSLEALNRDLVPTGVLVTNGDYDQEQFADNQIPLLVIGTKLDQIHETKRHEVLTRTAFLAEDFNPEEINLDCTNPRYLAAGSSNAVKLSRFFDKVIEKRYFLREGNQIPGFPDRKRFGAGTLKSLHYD

[6] = molecular target: T3, STE20-related kinase adapter protein alpha (Homo sapiens, UniProt Q7RTN6)
T3 sequence (Q7RTN6 whole entry): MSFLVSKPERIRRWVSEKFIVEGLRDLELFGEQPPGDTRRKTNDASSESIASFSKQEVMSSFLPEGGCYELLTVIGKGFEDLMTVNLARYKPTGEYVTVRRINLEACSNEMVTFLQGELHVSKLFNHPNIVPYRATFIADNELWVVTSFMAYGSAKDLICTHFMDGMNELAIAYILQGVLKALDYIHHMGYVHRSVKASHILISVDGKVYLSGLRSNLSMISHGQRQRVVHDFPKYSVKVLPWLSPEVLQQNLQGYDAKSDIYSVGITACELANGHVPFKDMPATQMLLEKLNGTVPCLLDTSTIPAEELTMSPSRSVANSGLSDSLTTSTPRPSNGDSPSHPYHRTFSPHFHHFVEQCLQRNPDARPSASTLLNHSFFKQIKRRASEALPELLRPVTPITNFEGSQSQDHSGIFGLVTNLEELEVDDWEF

TGF-beta receptor type-1 = molecular target: T4, TGF-beta receptor type-1 (Homo sapiens, UniProt P36897)
T4 sequence (P36897 whole entry): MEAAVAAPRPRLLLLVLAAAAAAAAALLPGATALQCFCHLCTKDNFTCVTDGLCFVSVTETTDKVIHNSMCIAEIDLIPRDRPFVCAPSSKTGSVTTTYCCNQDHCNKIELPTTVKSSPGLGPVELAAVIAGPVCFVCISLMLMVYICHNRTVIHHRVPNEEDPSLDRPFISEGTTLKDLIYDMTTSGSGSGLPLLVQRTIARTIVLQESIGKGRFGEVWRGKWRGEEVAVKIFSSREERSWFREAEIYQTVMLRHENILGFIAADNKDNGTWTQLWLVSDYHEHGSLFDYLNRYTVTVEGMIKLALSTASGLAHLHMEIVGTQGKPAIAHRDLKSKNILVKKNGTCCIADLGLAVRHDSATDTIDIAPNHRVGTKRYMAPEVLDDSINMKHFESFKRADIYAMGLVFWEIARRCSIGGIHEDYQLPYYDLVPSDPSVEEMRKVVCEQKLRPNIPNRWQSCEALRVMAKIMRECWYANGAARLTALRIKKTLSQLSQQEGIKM

Wee1-like protein kinase = Wee1-like protein kinase (Homo sapiens, UniProt P30291)
[7] = molecular target: Tyrosine-protein kinase Yes (Homo sapiens, UniProt P07947)

Wee1-like protein kinase, sequence (P30291 whole entry): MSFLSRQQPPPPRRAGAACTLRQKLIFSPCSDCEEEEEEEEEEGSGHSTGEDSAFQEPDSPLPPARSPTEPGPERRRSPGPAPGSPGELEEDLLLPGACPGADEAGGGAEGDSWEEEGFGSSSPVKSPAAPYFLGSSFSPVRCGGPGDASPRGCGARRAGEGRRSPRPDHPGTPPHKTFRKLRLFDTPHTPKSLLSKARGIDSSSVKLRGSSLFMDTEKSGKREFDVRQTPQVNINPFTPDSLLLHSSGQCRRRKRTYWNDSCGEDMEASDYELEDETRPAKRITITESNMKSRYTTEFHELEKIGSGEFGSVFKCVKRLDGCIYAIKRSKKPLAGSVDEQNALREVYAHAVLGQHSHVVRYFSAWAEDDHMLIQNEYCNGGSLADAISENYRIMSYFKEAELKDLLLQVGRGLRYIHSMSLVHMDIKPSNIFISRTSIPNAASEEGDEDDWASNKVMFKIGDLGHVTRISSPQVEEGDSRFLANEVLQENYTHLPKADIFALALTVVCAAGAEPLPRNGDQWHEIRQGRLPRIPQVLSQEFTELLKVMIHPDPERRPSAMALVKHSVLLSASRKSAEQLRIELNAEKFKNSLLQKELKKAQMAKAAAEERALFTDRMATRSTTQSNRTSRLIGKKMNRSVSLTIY
Dual specificity mitogen-activated protein kinase kinase 2, sequence (P36507 whole entry): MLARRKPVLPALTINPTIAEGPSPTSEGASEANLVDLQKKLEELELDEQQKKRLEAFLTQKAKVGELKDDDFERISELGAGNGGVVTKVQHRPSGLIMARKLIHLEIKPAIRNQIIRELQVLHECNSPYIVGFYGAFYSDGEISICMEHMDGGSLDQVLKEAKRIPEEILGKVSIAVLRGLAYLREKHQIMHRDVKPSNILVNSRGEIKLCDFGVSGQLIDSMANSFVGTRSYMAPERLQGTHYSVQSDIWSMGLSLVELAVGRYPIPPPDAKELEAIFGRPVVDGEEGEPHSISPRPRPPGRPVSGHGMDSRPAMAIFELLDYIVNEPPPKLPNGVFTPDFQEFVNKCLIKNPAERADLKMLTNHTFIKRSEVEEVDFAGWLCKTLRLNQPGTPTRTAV
Bone morphogenetic protein receptor type-1B, sequence (O00238 whole entry): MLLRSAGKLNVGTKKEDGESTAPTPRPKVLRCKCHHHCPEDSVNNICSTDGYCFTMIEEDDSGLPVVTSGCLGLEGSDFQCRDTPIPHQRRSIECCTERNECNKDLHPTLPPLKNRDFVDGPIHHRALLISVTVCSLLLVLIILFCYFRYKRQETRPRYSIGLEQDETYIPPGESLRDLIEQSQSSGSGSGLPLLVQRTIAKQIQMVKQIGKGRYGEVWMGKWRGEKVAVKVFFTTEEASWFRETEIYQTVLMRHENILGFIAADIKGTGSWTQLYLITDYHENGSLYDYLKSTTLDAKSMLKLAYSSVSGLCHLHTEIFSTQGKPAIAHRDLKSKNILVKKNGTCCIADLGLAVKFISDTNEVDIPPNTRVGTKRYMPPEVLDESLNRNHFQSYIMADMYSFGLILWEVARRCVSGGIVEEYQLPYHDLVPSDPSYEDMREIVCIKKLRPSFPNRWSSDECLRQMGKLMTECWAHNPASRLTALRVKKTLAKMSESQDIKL
Citron Rho-interacting kinase, sequence (O14578 whole entry): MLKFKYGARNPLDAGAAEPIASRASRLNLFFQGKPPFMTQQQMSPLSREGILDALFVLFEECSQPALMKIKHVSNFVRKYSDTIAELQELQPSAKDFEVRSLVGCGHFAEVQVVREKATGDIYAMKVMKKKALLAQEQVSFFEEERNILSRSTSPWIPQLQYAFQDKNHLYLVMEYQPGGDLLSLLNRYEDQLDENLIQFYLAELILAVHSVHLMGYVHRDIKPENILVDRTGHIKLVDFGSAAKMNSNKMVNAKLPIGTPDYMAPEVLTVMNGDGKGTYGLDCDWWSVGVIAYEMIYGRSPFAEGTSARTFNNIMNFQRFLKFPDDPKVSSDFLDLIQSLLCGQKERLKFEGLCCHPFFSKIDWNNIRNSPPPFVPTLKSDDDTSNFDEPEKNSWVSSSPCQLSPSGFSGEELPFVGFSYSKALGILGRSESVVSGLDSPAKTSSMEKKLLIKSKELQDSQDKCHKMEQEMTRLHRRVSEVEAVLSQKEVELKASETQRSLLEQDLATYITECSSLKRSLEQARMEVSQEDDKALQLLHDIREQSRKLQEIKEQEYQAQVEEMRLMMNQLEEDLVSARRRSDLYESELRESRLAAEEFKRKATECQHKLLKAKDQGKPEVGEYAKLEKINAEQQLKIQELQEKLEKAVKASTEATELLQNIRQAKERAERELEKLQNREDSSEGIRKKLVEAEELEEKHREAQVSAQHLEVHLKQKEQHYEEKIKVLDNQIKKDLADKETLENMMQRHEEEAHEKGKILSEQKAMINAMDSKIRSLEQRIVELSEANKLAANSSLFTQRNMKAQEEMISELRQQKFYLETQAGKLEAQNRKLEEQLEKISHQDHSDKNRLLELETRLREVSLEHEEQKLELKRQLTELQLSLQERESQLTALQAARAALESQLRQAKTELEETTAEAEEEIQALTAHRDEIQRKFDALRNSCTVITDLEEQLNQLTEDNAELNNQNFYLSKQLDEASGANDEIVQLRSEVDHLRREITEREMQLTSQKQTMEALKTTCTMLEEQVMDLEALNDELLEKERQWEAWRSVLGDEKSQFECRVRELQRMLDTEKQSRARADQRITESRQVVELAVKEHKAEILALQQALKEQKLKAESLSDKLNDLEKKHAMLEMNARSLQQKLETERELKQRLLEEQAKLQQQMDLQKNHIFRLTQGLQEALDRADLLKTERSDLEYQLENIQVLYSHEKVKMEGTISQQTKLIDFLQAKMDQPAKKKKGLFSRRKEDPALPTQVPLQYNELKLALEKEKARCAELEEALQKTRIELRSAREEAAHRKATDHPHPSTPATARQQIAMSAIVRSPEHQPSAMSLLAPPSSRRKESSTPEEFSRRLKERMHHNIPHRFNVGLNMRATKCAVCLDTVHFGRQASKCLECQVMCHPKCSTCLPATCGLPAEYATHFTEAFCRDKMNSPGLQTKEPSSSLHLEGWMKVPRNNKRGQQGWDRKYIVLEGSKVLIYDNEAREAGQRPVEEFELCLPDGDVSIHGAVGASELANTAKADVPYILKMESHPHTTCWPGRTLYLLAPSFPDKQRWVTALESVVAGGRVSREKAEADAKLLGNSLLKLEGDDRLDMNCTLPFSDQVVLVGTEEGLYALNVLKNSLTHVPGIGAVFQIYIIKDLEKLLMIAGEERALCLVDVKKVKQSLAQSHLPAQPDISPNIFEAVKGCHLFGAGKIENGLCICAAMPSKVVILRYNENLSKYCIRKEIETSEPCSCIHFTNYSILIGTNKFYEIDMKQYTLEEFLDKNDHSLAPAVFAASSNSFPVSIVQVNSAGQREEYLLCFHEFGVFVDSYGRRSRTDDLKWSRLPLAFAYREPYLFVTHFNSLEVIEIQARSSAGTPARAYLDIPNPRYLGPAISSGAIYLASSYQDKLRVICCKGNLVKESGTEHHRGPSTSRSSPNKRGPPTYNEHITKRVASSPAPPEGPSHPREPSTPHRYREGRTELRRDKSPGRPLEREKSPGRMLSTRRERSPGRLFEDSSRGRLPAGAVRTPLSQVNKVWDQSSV
Mitogen-activated protein kinase 3, sequence (P27361 whole entry): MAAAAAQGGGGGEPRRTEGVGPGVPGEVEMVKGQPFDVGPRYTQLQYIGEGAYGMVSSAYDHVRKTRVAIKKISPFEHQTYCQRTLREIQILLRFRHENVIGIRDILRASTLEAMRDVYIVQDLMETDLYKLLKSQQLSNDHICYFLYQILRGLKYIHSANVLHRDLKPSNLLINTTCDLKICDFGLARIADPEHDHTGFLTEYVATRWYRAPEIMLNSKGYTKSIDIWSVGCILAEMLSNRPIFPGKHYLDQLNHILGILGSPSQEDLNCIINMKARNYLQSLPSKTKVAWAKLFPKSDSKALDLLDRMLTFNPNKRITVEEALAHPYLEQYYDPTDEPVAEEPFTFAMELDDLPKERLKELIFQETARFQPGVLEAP
Ephrin type-A receptor 7, sequence (Q15375 whole entry): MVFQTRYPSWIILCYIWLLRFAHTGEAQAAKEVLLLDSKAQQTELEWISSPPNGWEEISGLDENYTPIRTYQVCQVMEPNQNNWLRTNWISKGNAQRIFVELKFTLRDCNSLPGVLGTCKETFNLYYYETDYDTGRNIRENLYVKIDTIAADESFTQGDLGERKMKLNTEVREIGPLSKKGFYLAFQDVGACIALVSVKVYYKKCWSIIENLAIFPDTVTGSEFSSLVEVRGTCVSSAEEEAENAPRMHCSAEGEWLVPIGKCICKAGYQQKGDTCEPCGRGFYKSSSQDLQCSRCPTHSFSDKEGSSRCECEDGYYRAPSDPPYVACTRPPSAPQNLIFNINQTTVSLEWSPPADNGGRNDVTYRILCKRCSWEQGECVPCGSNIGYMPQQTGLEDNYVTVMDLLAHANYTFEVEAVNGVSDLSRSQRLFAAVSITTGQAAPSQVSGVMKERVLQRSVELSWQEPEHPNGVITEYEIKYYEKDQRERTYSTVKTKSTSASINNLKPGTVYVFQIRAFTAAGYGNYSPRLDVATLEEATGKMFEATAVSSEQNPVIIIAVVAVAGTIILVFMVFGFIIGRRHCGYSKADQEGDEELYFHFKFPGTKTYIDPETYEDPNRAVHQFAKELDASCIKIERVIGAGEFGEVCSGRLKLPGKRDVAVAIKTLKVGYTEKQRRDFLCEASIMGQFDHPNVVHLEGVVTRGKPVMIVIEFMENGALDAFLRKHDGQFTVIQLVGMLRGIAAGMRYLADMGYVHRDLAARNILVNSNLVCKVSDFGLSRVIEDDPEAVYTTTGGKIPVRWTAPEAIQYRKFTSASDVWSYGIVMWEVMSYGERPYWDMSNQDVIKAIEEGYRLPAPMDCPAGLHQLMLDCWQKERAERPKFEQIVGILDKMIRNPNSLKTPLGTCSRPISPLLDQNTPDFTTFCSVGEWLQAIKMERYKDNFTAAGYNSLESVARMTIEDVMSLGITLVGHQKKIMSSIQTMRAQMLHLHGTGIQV

c1cc(OCCN2CCCCC2)cc(-c2n[nH]c3ccc(-c4nc[nH]n4)cc23)c1 [CC-401]
Kd [1]: > 30 µM (inactive) | Kd [2]: > 30 µM (inactive) | Kd (Ephrin type-A receptor 7): > 30 µM (inactive) | Kd (Ephrin type-B receptor 4): > 30 µM (inactive) | Kd [3]: > 30 µM (inactive) | Kd [4]: > 30 µM (inactive) | Kd [5]: 0.34 µM (active) | Kd (Rab-like protein 3): > 30 µM (inactive) | Kd [6]: > 30 µM (inactive) | Kd (TGF-beta receptor type-1): > 30 µM (inactive) | Kd (Wee1-like protein kinase): > 30 µM (inactive) | Kd [7]: > 30 µM (inactive)

COc1cc(Nc2ncc(F)c(Nc3ccc4c(n3)N(COP(=O)(O)O)C(=O)C(C)(C)O4)n2)cc(OC)c1OC [FOSTAMATINIB]
Kd [1]: > 30 µM (inactive) | Kd [2]: > 30 µM (inactive) | Kd (Ephrin type-A receptor 7): > 30 µM (inactive) | Kd (Ephrin type-B receptor 4): > 30 µM (inactive) | Kd [3]: > 30 µM (inactive) | Kd [4]: > 30 µM (inactive) | Kd [5]: 1.53 µM (active) | Kd (Rab-like protein 3): > 30 µM (inactive) | Kd [6]: > 30 µM (inactive) | Kd (TGF-beta receptor type-1): > 30 µM (inactive) | Kd (Wee1-like protein kinase): > 30 µM (inactive) | Kd [7]: > 30 µM (inactive)

COc1ccc2c(OCc3nnc4ccc(-c5ccccc5)nn34)ccnc2c1 [AMG-208]
Kd [1]: > 30 µM (inactive) | Kd [2]: > 30 µM (inactive) | Kd (Ephrin type-A receptor 7): > 30 µM (inactive) | Kd (Ephrin type-B receptor 4): > 30 µM (inactive) | Kd [3]: > 30 µM (inactive) | Kd [4]: > 30 µM (inactive) | Kd [5]: > 30 µM (inactive) | Kd (Rab-like protein 3): > 30 µM (inactive) | Kd [6]: > 30 µM (inactive) | Kd (TGF-beta receptor type-1): > 30 µM (inactive) | Kd (Wee1-like protein kinase): > 30 µM (inactive) | Kd [7]: > 30 µM (inactive)

CC[C@@](C)(Nc1ccnc(-c2c[nH]c3ncccc23)n1)C(=O)NCC(F)(F)F [DECERNOTINIB]
Kd [1]: > 30 µM (inactive) | Kd [2]: > 30 µM (inactive) | Kd (Ephrin type-A receptor 7): > 30 µM (inactive) | Kd (Ephrin type-B receptor 4): > 30 µM (inactive) | Kd [3]: > 30 µM (inactive) | Kd [4]: > 30 µM (inactive) | Kd [5]: > 30 µM (inactive) | Kd (Rab-like protein 3): > 30 µM (inactive) | Kd [6]: > 30 µM (inactive) | Kd (TGF-beta receptor type-1): > 30 µM (inactive) | Kd (Wee1-like protein kinase): > 30 µM (inactive) | Kd [7]: > 30 µM (inactive)

O=c1[nH]c([C@@H]2CCCN2)nc2c1oc1ccc(Cl)cc12
Kd [1]: > 30 µM (inactive) | Kd [2]: 3.66 µM (active) | Kd (Ephrin type-A receptor 7): > 30 µM (inactive) | Kd (Ephrin type-B receptor 4): > 30 µM (inactive) | Kd [3]: > 30 µM (inactive) | Kd [4]: > 30 µM (inactive) | Kd [5]: > 30 µM (inactive) | Kd (Rab-like protein 3): > 30 µM (inactive) | Kd [6]: > 30 µM (inactive) | Kd (TGF-beta receptor type-1): > 30 µM (inactive) | Kd (Wee1-like protein kinase): > 30 µM (inactive) | Kd [7]: > 30 µM (inactive)

Cc1c(Cn2c(C)nc3c(C(=O)O)cc(N4CCOCC4)cc32)cccc1C(F)(F)F [GSK-2636771]
Kd [1]: > 30 µM (inactive) | Kd [2]: > 30 µM (inactive) | Kd (Ephrin type-A receptor 7): > 30 µM (inactive) | Kd (Ephrin type-B receptor 4): > 30 µM (inactive) | Kd [3]: > 30 µM (inactive) | Kd [4]: > 30 µM (inactive) | Kd [5]: > 30 µM (inactive) | Kd (Rab-like protein 3): > 30 µM (inactive) | Kd [6]: > 30 µM (inactive) | Kd (TGF-beta receptor type-1): > 30 µM (inactive) | Kd (Wee1-like protein kinase): > 30 µM (inactive) | Kd [7]: > 30 µM (inactive)
